One assay relates to MRSA (ATCC #33591). Put plainly: rabbit ischemic wound model. The assay is classed as in vivo, New Zealand white rabbits. Here is the method: 5-(2,5-bis(4-chloro-2-isopropylphenyl)thiophen-3-yl)-1H-tetrazole was tested for its efficacy against infection in the rabbit ischemic wound model, the gold standard animal model mimicking human DUI. In this model, the ear is made ischemic by division of central and rostral nutrient arteries of New Zealand white rabbits. New Zealand White rabbits were employed for this study and their husbandry and experimental manipulation adhered to standard Guides for the Care and Use of Laboratory Animals (2001). An incision was made to the level of bare cartilage at the base of the ear and followed by injection intradermally with epinephrine to obtain vasoconstriction and aid with skin detachment. Skin is separated from the underlying perichondrium and removed with a 6.0 mm aortic biopsy punch. Food and water were given ad libidum and animals were acclimatized for 7 days with photoperiods of alternating 12 h light and dark provided, along with analgesic (BUPRENEX™ (buprenorphine) 0.02 mg/kg sc) and anaesthesia (isoflurane (0.5-5% with oxygen carrier 0.5-2 L/min) during procedures.
An ischemia wound healing model was conducted surgically. Each wound was inoculated with 50 μl of 2×10^7 CFU/ml MRSA (ATCC #33591) and dressed. After one day, wounds were treated with either 50 μl control cream containing vehicle (N=4), 50 μl containing mupirocin (N=4), or 50 μl cream containing 5-(2,5-bis(4-chloro-2-isopropylphenyl)thiophen-3-yl)-1H-tetrazole (N=8) daily. Clinical observations were performed on days 1, 3, 5, 7, 10 and 14. Wounds were assessed and observations recorded using the Draize scoring system. Digital photographs of each wound were obtained and documented.
On day 14 post-wounding, under anesthesia, the animals were euthanized with an intravenous injection of BEUTHANASIA-D™ ([…] and phenytoin sodium) at a dosage of 150 mg/kg of body weight. Specimens including the entire wound, along with approximately 2-3 mm of the normal unwounded skin margins were harvested. Each ear wound specimen was sectioned into halves. For one half of the wound, the wound was placed into a container with 10% neutral buffered formalin and processed for routine histological evaluation. Wound organization was scored for four parameters on a scale of 0-4 at the wound site for inflammation, granulation, angiogenesis, and epithelialization. Wounds were characterized in a blinded manner by a board certified member of the College of American Pathologists. The other half of the wound was weighed (mg) in a sterile Petri dish, then placed in a sterile disposable tissue grinder and homogenized for quantitative microbiology. The tube containing the ground tissue sample was filled with 5 ml 0.85% sterile saline. Five 1:10 serial dilutions were then prepared with 0.5 ml aliquots and 4.5 ml of sterile saline per aliquot. Subsequently, 0.1 ml of the homogenate and each dilution was drop plated on trypticase soy agar and placed in an incubator at 37° C. The number of viable organisms per wound was recorded as cfu/gram of tissue.

The next assay addresses T1, E. coli AcpS (Escherichia coli, UniProt P24224).
T1 construct: expressed in transfected cells; host or cells: E. coli strain D22 (porous outer membrane)
Description: MIC shift upon AcpS over-expression in E. coli strain D22. In kind it is cell-based. The settings on record: E. coli D22 over-expressing E. coli AcpS, IPTG inducible. An excerpt:
(§1) To determine if AcpS inhibition is the main in vivo target that results in bacterial killing by 5-(2,5-bis(4-chloro-2-isopropylphenyl)thiophen-3-yl)-1H-tetrazole, we over-expressed AcpS in bacteria. An E. coli strain genetically engineered to have a porous outer membrane (strain D22) was transformed with a plasmid expressing either E. coli or S. aureus AcpS under control of an IPTG inducible promoter.

In the next assay the test system is S. aureus AcpS. The description is as above. The settings on record: E. coli D22 over-expressing S. aureus AcpS, IPTG inducible. The assay is classed as cell-based.
Excerpt: as §1

The subject of a further assay is fatty acid synthase. Description: in vitro enzyme assay, selectivity. The assay is classed as biochemical. To be noted: ACP utilizing bacterial enzyme.
For a further assay, the system named is AcpS. Put plainly: AcpS enzyme activity assay. The assay is classed as biochemical, S. aureus and E. coli. The settings on record: [3H]-labeled holo-ACP formation. Here is the method:
The acpS gene was amplified from S. aureus and E. coli genomic DNA and inserted into a pET23b vector using standard recombinant DNA methodology such that the protein product would result in addition of a C-terminal 6×-His tag in frame with the AcpS open reading frames. […] Recombinant His-Tagged AcpS expression was induced by IPTG addition and overnight culture. Cell lysate was obtained by sequential aspiration through 16, 18 and 21 G needles in a buffer of 50 mM Tris-HCl (pH 8.5), 10 mM MgCl2, 2 mM DTT, 5% glycerol, and further adjusted to pH 8.1 with MES. […] In a typical AcpS enzyme activity assay, 57 μM [^3H]-labeled acyl-CoA, 2 μg apo-ACP, 10 mM MgCl2, 5 mM DTT, 50 mM Na phosphate (pH 7.0), and AcpS in a final volume of 10 μL were incubated at room temperature in a 1.5 mL microcentrifuge tube. At 5, 10, 15, and 20 minutes 2 μL of reaction were added to 750 μL 10% TCA on ice. Bovine serum albumin (BSA; 20 μl of a 25 mg/ml solution) was then added to facilitate precipitation of radiolabeled protein. The samples were centrifuged at 12 000 rcf for 5 min. […] 2 mL of scintillation fluid was added, and the amount of [^3H]-labeled holo-ACP formed was quantified by liquid scintillation counting. Each data point (remaining AcpS enzyme activity) was expressed as a percentage of vehicle control, with the median value of four time points presented.

A further assay has as its system USA300 MRSA strain. Put plainly: bactericidal activity. In kind it is cell-based.
Where [1] appears, read: topical daily, day 14, compared to the control.

Each structure is given as a SMILES string. A value given as a limit tells only on which side of the number the result lay.

T1 sequence (P24224 whole entry): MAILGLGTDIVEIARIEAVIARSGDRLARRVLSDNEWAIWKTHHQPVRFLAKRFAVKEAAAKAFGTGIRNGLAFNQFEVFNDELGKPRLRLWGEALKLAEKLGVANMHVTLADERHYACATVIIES

With `CC(C)c1cc(Cl)ccc1-c1cc(-c2nnn[nH]2)c(-c2ccc(Cl)cc2C(C)C)s1` [Test Article, 5-(2,5-bis(4-chloro-2-isopropylphenyl)thiophen-3-yl)-1H-tetrazole], the “percent wound contraction over time (FIG. 1)” value in the assay with MRSA (ATCC #33591) (topical daily to day 14, p<0.001 vs control, p<0.03 vs mupirocin) is recorded as “better than the mupirocin treated group”. In addition, in the assay with MRSA (ATCC #33591) (topical daily, Draize scoring), the “effect on erythema and edema” value was “positive effect”. For the same compound, in the assay with MRSA (ATCC #33591) (setting [1]), the CFU drop is recorded as 4 log and the “reduction in bacterial survival” value was over 99%. In addition, the “wound healing and epithelialization” value with MRSA (ATCC #33591) (topical daily, versus mupirocin group) is “significantly better than the mupirocin group”. The “shift of MIC to higher concentration upon increased AcpS expression” value at E. coli AcpS was found to be 32 fold. The “shift of MIC to higher concentration upon increased AcpS expression” value in the assay with S. aureus AcpS was determined as 16 fold. The “inhibition of fatty acid synthase” value in the assay with fatty acid synthase is reported as “did not inhibit”. Besides, in the assay with AcpS, the AcpS inhibition entry was “inhibited”. Also, the bactericidal activity result with USA300 MRSA strain is given as “rapidly bactericidal”.
